One assay deals with EGFRΔ19del/T790M/C797S (Homo sapiens, UniProt P00533, T790M/C797S, form not given). Kind of assay: EGFR Δ19del/T790M/C797S kinase test (mobility variation analysis, Caliper EZ Reader). It counts as biochemical. Conditions: kinase enzymatic activity, Table 1. In outline: (§1)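 Kinase pre-incubated with compound 10 minutes at room temperature, then ATP plus peptide substrate added; substrate conversion read by mobility shift after stop solution. Percent inhibition normalized to no-compound and no-enzyme controls; IC50 from variable-slope log(inhibitor) fit.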

The next assay concerns the target EGFR WT (Homo sapiens, UniProt P00533). Kind of assay: EGFR WT kinase test (mobility variation analysis, Caliper EZ Reader). Format: biochemical. The settings on record: kinase enzymatic activity, Table 1. In outline: as §1
Another assay concerns the target IGF1R (Homo sapiens, UniProt P08069). Kind of assay: IGF1R kinase test (mobility variation analysis, Caliper EZ Reader). Format: biochemical. Conditions: kinase enzymatic activity, Table 1; read-out: EGFR IGF1R IC50. Summed up:
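Kinase preincubated 10 min at room temperature with compound (10-point 3-fold series, top 3000 nM), then ATP and substrate added and reacted at room temperature. Substrate conversion read by mobility-shift (Caliper EZ Reader); % inhibition vs no-enzyme and no-compound controls fitted to variable-slope curve for IC50.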

The target of assay [1] is Ba/F3 cells with EGFR Δ19del/T790M/C797S mutation gene stably overexpressed (Homo sapiens, UniProt P00533, T790M/C797S, cells depend on it, form not given). The assay is described as follows: Ba/F3-Δ19del/T790M/C797S cell proliferation assay (CellTiter Glo, 72 hours). Format: cell-based. The settings on record: Table 2, read-out: EGFR Δ19del/T790M/C797S IC50. Summed up:
(§2)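 Ba/F3 cells stably overexpressing wild-type EGFR or EGFR Δ19del/T790M/C797S were seeded at 2000 cells/well and incubated 72 h with compound. Viability was read by CellTiter-Glo luminescence, and IC50 came from a four-parameter logistic fit of signal against log concentration.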

Assay [2] concerns the target Ba/F3-EGFR wild-type cell line (Homo sapiens, UniProt P00533). Kind of assay: Ba/F3-EGFR wild-type cell proliferation assay (CellTiter Glo, 72 hours). Conditions: Table 2, read-out: EGFR WT IC50. Format: cell-based. In outline:
as §2
(Cellular ATP, detected with luciferase, serves as a proxy for viable cell number.)

The test system of the next assay is A431. The assay is described as follows: A431 cell proliferation assay (CellTiter Glo, 72 hours). Format: cell-based. Conditions: Homo sapiens, A-431, 72 h, cell proliferation, A431, 72 hours, Table 2; read-out: A431 IC50. Summed up: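 A431 cells (2000/well) exposed 72 h to compound at 1000 nM down to 0.2 nM in 3-fold steps, 0.1% DMSO (0.5% for some series). Viability by CellTiter-Glo luminescence; IC50 by four-parameter nonlinear regression.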

14 compounds from patent US20220402948A1, “EGFR INHIBITOR, COMPOSITION AND PREPARATION METHOD THEREFOR” (BETTA PHARMACEUTICALS CO., LTD., priority 2019, published 2022) can be followed below.

As a reminder, the IC50 is the concentration that gives 50% inhibition.

Sequence of EGFRΔ19del/T790M/C797S (P00533 with tags, fused parts or gaps DEL746-750/T790M/C797S, form open): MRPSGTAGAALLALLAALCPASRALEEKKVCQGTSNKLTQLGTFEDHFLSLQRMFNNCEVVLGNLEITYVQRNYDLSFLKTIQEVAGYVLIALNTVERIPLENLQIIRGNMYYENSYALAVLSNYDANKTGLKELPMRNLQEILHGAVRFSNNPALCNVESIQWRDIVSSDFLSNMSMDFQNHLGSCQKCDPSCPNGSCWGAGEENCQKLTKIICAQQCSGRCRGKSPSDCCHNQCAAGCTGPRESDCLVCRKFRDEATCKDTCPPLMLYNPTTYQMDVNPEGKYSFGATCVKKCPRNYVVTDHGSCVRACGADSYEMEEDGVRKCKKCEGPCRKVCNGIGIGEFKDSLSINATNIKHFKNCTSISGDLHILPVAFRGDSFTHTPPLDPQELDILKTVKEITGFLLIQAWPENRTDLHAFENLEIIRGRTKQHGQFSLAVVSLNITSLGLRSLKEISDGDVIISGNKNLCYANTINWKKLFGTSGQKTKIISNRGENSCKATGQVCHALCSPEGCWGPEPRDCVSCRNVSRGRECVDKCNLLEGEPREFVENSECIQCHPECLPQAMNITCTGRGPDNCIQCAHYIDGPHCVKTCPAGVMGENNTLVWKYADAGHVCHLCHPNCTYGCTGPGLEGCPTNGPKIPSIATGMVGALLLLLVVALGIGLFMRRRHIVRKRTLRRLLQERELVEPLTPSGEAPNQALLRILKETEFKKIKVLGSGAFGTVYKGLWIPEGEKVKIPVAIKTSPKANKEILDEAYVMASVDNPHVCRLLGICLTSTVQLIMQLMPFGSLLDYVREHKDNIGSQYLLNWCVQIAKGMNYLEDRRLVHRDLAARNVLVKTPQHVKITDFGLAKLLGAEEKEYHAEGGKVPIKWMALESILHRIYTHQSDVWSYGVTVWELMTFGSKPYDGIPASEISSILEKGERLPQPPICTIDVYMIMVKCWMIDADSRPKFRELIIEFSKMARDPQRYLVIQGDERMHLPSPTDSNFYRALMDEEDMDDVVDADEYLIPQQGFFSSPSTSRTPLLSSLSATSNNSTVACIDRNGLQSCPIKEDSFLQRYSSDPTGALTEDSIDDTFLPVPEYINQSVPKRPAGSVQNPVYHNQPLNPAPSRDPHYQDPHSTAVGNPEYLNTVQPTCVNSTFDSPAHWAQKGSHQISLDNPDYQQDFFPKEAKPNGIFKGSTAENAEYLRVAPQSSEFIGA
Sequence of Ba/F3 cells with EGFR Δ19del/T790M/C797S mutation gene stably overexpressed (P00533 with tags, fused parts or gaps DEL746-750/T790M/C797S, form open): as above
Sequence of IGF1R (P08069 31-1367, species assumed): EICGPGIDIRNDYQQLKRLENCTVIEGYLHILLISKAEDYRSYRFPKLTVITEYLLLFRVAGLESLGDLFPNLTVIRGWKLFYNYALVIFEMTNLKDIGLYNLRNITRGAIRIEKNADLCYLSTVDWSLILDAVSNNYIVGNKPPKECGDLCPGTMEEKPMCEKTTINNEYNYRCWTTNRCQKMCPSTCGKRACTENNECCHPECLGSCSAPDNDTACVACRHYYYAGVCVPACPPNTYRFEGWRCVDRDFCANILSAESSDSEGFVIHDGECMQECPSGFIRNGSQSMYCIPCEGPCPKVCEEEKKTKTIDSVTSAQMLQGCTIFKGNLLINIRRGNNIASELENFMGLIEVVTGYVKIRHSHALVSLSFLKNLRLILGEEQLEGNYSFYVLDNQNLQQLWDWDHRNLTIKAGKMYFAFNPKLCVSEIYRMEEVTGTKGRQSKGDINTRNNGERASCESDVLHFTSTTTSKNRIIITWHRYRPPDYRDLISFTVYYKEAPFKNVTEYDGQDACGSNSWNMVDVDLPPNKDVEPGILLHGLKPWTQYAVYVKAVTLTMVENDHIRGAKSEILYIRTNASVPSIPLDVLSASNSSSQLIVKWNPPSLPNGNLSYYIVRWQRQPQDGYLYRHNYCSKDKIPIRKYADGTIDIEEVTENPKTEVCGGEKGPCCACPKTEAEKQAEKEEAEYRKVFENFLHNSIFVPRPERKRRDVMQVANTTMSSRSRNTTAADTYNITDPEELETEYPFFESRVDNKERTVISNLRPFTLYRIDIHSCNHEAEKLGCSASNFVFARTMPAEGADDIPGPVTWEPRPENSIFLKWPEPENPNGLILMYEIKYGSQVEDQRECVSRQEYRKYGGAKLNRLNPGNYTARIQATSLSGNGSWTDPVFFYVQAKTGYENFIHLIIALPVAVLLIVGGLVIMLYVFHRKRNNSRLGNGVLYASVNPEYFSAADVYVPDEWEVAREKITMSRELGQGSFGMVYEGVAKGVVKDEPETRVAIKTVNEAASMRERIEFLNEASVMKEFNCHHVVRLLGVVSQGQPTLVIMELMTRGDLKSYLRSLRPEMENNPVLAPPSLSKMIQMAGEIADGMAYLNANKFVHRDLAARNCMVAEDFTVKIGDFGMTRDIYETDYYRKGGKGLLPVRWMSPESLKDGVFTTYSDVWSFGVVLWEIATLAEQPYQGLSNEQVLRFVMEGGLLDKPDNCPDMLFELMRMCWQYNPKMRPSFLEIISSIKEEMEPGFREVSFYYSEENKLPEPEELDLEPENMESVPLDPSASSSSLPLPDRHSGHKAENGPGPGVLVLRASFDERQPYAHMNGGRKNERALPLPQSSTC
Sequence of Ba/F3-EGFR wild-type cell line (P00533 whole entry, change not shown): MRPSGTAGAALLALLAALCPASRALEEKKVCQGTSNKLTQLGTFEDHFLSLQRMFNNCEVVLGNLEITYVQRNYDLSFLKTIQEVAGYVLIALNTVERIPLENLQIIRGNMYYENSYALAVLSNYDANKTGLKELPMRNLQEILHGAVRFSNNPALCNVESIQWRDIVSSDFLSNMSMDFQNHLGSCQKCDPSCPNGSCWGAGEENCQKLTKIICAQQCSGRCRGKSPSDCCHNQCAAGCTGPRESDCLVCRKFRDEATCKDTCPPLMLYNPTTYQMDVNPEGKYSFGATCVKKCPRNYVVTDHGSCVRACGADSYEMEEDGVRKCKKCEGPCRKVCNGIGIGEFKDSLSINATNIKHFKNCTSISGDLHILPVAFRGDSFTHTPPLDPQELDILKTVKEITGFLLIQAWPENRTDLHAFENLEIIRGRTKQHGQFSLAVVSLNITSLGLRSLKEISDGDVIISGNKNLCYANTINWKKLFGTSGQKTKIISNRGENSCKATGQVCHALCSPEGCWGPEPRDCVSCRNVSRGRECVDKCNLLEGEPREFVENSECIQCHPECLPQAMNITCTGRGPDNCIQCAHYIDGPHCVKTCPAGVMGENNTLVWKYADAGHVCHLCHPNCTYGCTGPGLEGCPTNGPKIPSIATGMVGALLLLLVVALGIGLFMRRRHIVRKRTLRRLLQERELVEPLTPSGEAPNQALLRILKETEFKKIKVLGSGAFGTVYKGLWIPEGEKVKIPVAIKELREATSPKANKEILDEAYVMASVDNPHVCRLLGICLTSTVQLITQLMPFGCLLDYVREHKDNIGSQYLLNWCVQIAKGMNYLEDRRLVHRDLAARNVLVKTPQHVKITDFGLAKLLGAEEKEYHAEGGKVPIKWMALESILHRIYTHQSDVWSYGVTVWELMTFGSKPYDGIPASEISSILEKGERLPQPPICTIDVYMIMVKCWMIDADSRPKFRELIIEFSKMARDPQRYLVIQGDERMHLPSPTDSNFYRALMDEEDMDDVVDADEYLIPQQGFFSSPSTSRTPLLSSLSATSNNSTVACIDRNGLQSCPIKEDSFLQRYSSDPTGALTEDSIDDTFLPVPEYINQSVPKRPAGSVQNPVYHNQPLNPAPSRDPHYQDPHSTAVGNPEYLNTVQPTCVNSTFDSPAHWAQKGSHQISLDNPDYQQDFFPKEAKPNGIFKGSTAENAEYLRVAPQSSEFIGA

In the case of `CCc1cc(Nc2ncc(Br)c(Nc3ccc(-c4cnn(C)c4)c(C)c3P(C)(C)=O)n2)c(OC)cc1N1CCC(N2CCN(C)CC2)CC1` [Compound K-046, (6-((5-Bromo-2-((5-ethyl-2-methoxy-4-(4-(4-methylpiperazin-1-yl)piperidin-1-yl)phenyl)amino)pyrimidin-4-yl)amino)-2-methyl-3-(1-methyl-1H-pyrazol-4-yl)phenyl)dimethylphosphine oxide], the IC50 turned out to be 0.5 nM against EGFRΔ19del/T790M/C797S, 9.9 nM against EGFR WT, 28.7 nM on IGF1R and 306 nM in the assay on A431. Moreover, the GI50 in assay [1] amounted to 7.6 nM; in assay [2], 34.8 nM.

Consider `CCc1cnc(-c2ccc(Nc3nc(Nc4cc(CC)c(N5CCC(N6CCN(C)CC6)CC5)cc4OC)ncc3Br)c(P(C)(C)=O)c2)nc1` [Compound 70], for which the IC50 against EGFRΔ19del/T790M/C797S came out at 0.9 nM; against EGFR WT it was 38.6 nM; at IGF1R it was 246 nM; with A431 it was 6290 nM. Further, the GI50 in assay [1] stood at 9 nM; in assay [2], 407 nM.

For the compound `COc1cnn(-c2ccc(Nc3nc(Nc4cc(OC)c(N5CCC(N(C)C)CC5)cc4C)ncc3Br)c(P(C)(C)=O)c2)c1` [Compound K-038, (2-((5-Bromo-2-((4-(4-(dimethylamino)piperidin-1-yl)-5-methoxy-2-methylphenyl)amino)pyrimidine-4-yl)amino)-5-(4-methoxy-1H-pyrazol-1-yl)phenyl)dimethylphosphine oxide], the 50% inhibitory concentration (IC50) on EGFRΔ19del/T790M/C797S worked out at 0.2 nM; against EGFR WT, 19.2 nM; on IGF1R it was 56.1 nM; in the assay with A431 it was 1040 nM. The GI50 was 15.4 nM in assay [1] and 114 nM in assay [2].

Consider `COc1cc(Nc2ncc(Br)c(Nc3ccc(-c4cnccn4)cc3P(C)(C)=O)n2)c(C)cc1N1CCC(N2CCN(C)CC2)CC1` [Compound K-017, (2-((5-Bromo-2-((5-methoxy-2-methyl-4-(4-(4-methylpiperazin-1-yl)piperidin-1-yl)phenyl)amino)pyrimidin-4-yl)amino)-5-(pyrazin-2-yl)phenyl)dimethylphosphine oxide], for which the IC50 against EGFRΔ19del/T790M/C797S amounted to 0.5 nM; at EGFR WT, 14.4 nM; on IGF1R it was 39.1 nM; in the assay with A431, 812 nM. In addition, the GI50 in assay [1] worked out at 12 nM; in assay [2], 445 nM.

For `COc1cc(Nc2ncc(Br)c(Nc3ccc(-c4nccs4)cc3P(C)(C)=O)n2)c(C)cc1N1CCC(N2CCN(C)CC2)CC1` [Compound K-019, (2-((5-Bromo-2-((5-methoxy-2-methyl-4-(4-(4-methylpiperazin-1-yl)piperidin-1-yl)phenyl)amino)pyrimidin-4-yl)amino)-5-(thiazol-2-yl)phenyl)dimethylphosphine oxide], the half-inhibitory concentration (IC50) was found to be 0.2 nM against EGFRΔ19del/T790M/C797S, 14.7 nM on EGFR WT, 33.1 nM at IGF1R and 535 nM with A431. Moreover, the GI50 was 16 nM in assay [1] and 48.7 nM in assay [2].

On to `CCc1cc(Nc2ncc(Br)c(Nc3ccc(-n4cc(OC)cn4)cc3P(C)(C)=O)n2)c(OC)cc1N1CCC(N2CCN(C)CC2)CC1` [Compound K-054, (2-((5-Bromo-2-((5-ethyl-2-methoxy-4-(4-(4-methylpiperazin-1-yl)piperidin-1-yl)phenyl)amino)pyrimidin-4-yl)amino)-5-(4-methoxy-1H-pyrazol-1-yl)phenyl)dimethylphosphine oxide], for which the IC50 at EGFRΔ19del/T790M/C797S was determined as 0.2 nM; on EGFR WT, 32 nM; on IGF1R, 268 nM; with A431 it was 1510 nM. Also, the GI50 in assay [1] is 19.1 nM; in assay [2], 343 nM.

With `CCc1cc(Nc2ncc(Cl)c(Nc3ccc(-c4ncc(OC)cn4)cc3P(C)(C)=O)n2)c(OC)cc1N1CCC(N2CCN(C)CC2)CC1` [Compound 20, (2-((5-Chloro-2-((5-ethyl-2-methoxy-4-(4-(4-methylpiperazin-1-yl)piperidin-1-yl)phenyl)amino)pyrimidin-4-yl)amino)-5-(5-methoxypyrimidin-2-yl)phenyl)dimethylphosphine oxide], the IC50 on EGFRΔ19del/T790M/C797S came out at 0.5 nM; at EGFR WT, 19 nM; on IGF1R, 120 nM; in the assay on A431, 1470 nM. Besides, the figures for the GI50 in assay [1] and in assay [2] were 11.8 nM and 365 nM, respectively.

Turning to `COc1cc(N2CCC(N3CCN(C)CC3)CC2)c(C)cc1Nc1ncc(Br)c(Nc2ccc(-c3cnn(C)n3)cc2P(C)(C)=O)n1` [Compound K-008, (2-((5-Bromo-2-((2-methoxy-5-methyl-4-(4-(4-methylpiperazin-1-yl)piperidin-1-yl)phenyl)amino)pyrimidin-4-yl)amino)-5-(2-methyl-2H-1,2,3-triazol-4-yl)phenyl)dimethylphosphine oxide], the IC50 against EGFRΔ19del/T790M/C797S was found to be 0.24 nM; against EGFR WT, 15 nM; on IGF1R, 120 nM; in the assay with A431 it was 415 nM. In addition, the GI50 in assay [1] turned out to be 4.8 nM; in assay [2], 169 nM.

In the case of `CCc1cc(Nc2ncc(Br)c(Nc3ccc(-c4ccccc4)cc3P(C)(C)=O)n2)c(OC)cc1N1CCC(N2CCOCC2)CC1` [Compound K-047, (4-((5-Bromo-2-((5-ethyl-2-methoxy-4-(4-morpholinopiperidin-1-yl)phenyl)amino)pyrimidin-4-yl)amino)-[1,1′-biphenyl]-3-yl)dimethylphosphine oxide], the IC50 against EGFRΔ19del/T790M/C797S is 0.8 nM; on EGFR WT, 43 nM; on IGF1R, 217 nM; in the assay on A431, 12600 nM. The results for the GI50 in assay [1] and in assay [2] were 29.8 nM and 95.6 nM, respectively.

Regarding `COc1cnn(-c2ccc(Nc3nc(Nc4cc(OC)c(N5CCC(N6CCN(C)CC6)CC5)cc4C)ncc3Br)c(P(C)(C)=O)c2)c1` [Compound K-018, (2-((5-Bromo-2-((5-methoxy-2-methyl-4-(4-(4-methylpiperazin-1-yl)piperidin-1-yl)phenyl)amino)pyrimidin-4-yl)amino)-5-(4-methoxy-1H-pyrazol-1-yl)phenyl)dimethylphosphine oxide], the IC50 against EGFRΔ19del/T790M/C797S worked out at 0.2 nM; against EGFR WT, 17.1 nM; at IGF1R, 67.2 nM; in the assay with A431 it was 1060 nM. Besides, the GI50 worked out at 9.7 nM in assay [1] and 295 nM in assay [2].

For `CCc1cc(Nc2ncc(Br)c(Nc3ccc(-c4ncccn4)cc3P(C)(C)=O)n2)c(OC)cc1N1CCC(N2CCN(C)CC2)CC1` [Compound 26, (2-((5-Bromo-2-((5-ethyl-2-methoxy-4-(4-(4-methylpiperazin-1-yl)piperidin-1-yl)phenyl)amino)pyrimidin-4-yl)amino)-5-(pyrimidin-2-yl)phenyl)dimethylphosphine oxide], the 50% inhibitory concentration (IC50) was found to be 0.4 nM against EGFRΔ19del/T790M/C797S, 18.9 nM against EGFR WT, 102 nM at IGF1R and 1030 nM with A431. In addition, the GI50 turned out to be 5.1 nM in assay [1] and 162 nM in assay [2].

Turning to `CCc1cc(Nc2ncc(Br)c(Nc3ccc(-c4nn(C)c5ncccc45)cc3P(C)(C)=O)n2)c(OC)cc1N1CCC(N(C)C)CC1` [Compound K-079, (2-((5-Bromo-2-((4-(4-(dimethylamino)piperidin-1-yl)-5-ethyl-2-methoxyphenyl)amino)pyrimidine-4-yl)amino)-5-(1-methyl-1H-pyrazolo[3,4-b]pyridin-3-yl)phenyl)dimethylphosphine oxide], the IC50 against EGFRΔ19del/T790M/C797S was determined as 0.5 nM; against EGFR WT, 149 nM; on IGF1R, 997 nM; in the assay on A431, 7650 nM. Moreover, the GI50 was determined as 50.9 nM in assay [1] and 432 nM in assay [2].

As to `COc1cc(Nc2ncc(Br)c(Nc3ccc(-c4cnn(C)n4)cc3P(C)(C)=O)n2)c(C)cc1N1CCOCC1` [Compound K-015, (2-((5-Bromo-2-((5-methoxy-2-methyl-4-morpholinophenyl)amino)pyrimidin-4-yl)amino)-5-(2-methyl-2H-1,2,3-triazol-4-yl)phenyl)dimethylphosphine oxide], the half-inhibitory concentration (IC50) at EGFRΔ19del/T790M/C797S came to 0.2 nM; against EGFR WT, 27.4 nM; on IGF1R, 56.6 nM; in the assay with A431, 953 nM. In addition, the GI50 in assay [1] came out at 13.6 nM; in assay [2], 178 nM.

`CCc1cc(Nc2ncc(Br)c(Nc3ccc(-c4ccc(OC)s4)cc3P(C)(C)=O)n2)c(OC)cc1N1CCC(N2CCN(C)CC2)CC1` [Compound K-072, (2-((5-Bromo-2-((5-ethyl-2-methoxy-4-(4-(4-methylpiperazin-1-yl)piperidin-1-yl)phenyl)amino)pyrimidin-4-yl)amino)-5-(5-methoxythiophen-2-yl)phenyl)dimethylphosphine oxide]: the IC50 is 0.96 nM against EGFRΔ19del/T790M/C797S, 12 nM at EGFR WT, 150 nM at IGF1R and 1930 nM in the assay with A431. Further, the GI50 was found to be 50.3 nM in assay [1] and 446 nM in assay [2].
